# From US20240199626A1, “COMPOUNDS WITH IMPROVED CARDIAC SAFETY FOR THE TREATMENT OF CANCER AND NEURODEGENERATIVE DISORDERS” (priority 2021, published 2024)
# pIC50: −log10 of the molar value. Read-outs that look alike come from different tables or passages of the source.
# Assays:
# hiPSC-CMs = experiment: Cardiotoxicity assay in hiPSC-CMs (voltage transients, arrhythmia, contractility)
# Description: iPSC-CMs: Human fibroblasts were reprogrammed to induced pluripotent stem cells (iPSCs) using Sendai viral vectors. All protocols were approved by the Stanford University Institutional Review Board. The obtained hiPSC clones were cultured in E8 cell culture media (Life Technologies) in plates coated growth factor-reduced Matrigel (Corning) until at least passage 20 before differentiation. hiPSC cells were differentiated into cardiomyocytes (CMs) utilizing a chemically defined cardiomyocyte differentiation protocol^55 and fatty acid rich maturation protocol.^56
# hiPSC-CMs were plated on Matrigel coated 384-well plates at 20,000 cells per well (Greiner μClear) in 50 μl cardiomyocyte media (RMPI, B27) supplemented with 10% knock-out replacement serum. The subsequent day an additional 50 μl of media was added and cells were grown for a minimum of 5 days prior to analysis. Action potential kinetics and contractility was measured on the same cells sequentially. First, action potential kinetics were recorded using the protocol as established by Mckeithan et al.^58 Briefly, the cells were washed 5 times with FluoroBrite, loaded with VF2.1.CI dye for 50 min at 37° C., and washed again 5 times with FluoroBrite. Voltage time series were acquired at a frequency of 33 Hz for a duration of 10 s on the IC200 Kinetic Imaging Platform (Vala Sciences). […] The resulting recordings were subsequently analyzed using Vala Sciences and custom software, action potential kinetics, action potential durations and rates,^58 or contractile activity parameters (peak divergence, area under the curve) were used as measures of cardiotoxicity.^59
# HEK cells = experiment: HEK cell growth inhibition
# K-562 cells = experiment: Cell viability / growth inhibition (AlamarBlue), K-562; assay type: cell-based; conditions: Homo sapiens
# Description: (§1) K562 and K562-T315I: The Leukemia cell lines K562 were purchased and maintained as recommended by ATCC (Manassas, VA, USA). Briefly, K562 cells were cultured in suspension in RPMI1640 (ThermoFisher Scientific, USA) supplemented with 10% fetal bovine serum and Pen/Strep/L-Glutamine. […] Briefly, one million K562 cells were seeded in 6-well plates and transfected with Lipofectamine 2000 and 1 μg of CRISPR/Cas9 vector (pSpCas9(BB)-2A-GFP) incorporating the guide sequence ([…]), and Lipofectamine RNAiMax and 4 μg of ssDNA donors (1ug of each donor, Supplementary Table 1) for each well of a 6-well plate.
# (§2) The effects of the compounds on cell viability were evaluated using the AlamarBlue assay using the NCI60 methodology.^57 Cells were harvested and plated in 384-well plates (Greiner μClear) at a concentration of 1250 cells/well in 40 μL, and incubated for 24 h at 37° C. The next day, test compounds were added to the cells as a 2×40μL solution, and incubated for 48 h at 37° C.
# [1] = Serum cardiac troponin levels in treated mice; conditions: 30 mg/kg daily by oral gavage; indication of cardiac damage
# [2] = tested on: K-562-T315I cells (K-562 cells expressing BCR-ABL^T315I); experiment: Cell viability / growth inhibition (AlamarBlue), K-562-T315I; assay type: cell-based; conditions: Homo sapiens, K562, read-out: Cell Inhibition IC50 K-562-T315I
# Description: as §1, §2
# [3] = K562, Table 5, ± SD, read-out: Cell Inhibition IC50 K562
smiles,measurement,setting,value
"C#Cc1cc(C(=O)Nc2cc(-n3cnc(C)c3)cc(C(F)(F)F)c2)ccc1C [Compound 26, 3-ethynyl-4-methyl-N-(3-(4-methyl-1H-imidazol-1-yl)-5-(trifluoromethyl)phenyl)benzamide]",Cardiotoxicity (overall maximum toxic dose),hiPSC-CMs; Table 4,>10 µM
"Cc1ccc(C(=O)N2CCN(C)CC2)cc1C#Cc1cnc2cccnn12 [Compound 10a, (3-(imidazo[1,2-b]pyridazin-3-ylethynyl)-4-methylphenyl)(4-methylpiperazin-1-yl)methanone]",Cardiotoxicity (overall maximum toxic dose),hiPSC-CMs; Table 3,>10 µM
"Cc1nccc(Nc2ncc(C(=O)Nc3c(C)cccc3Cl)s2)n1 [Compound 3b, N-(2-chloro-6-methylphenyl)-2-((2-methylpyrimidin-4-yl)amino) thiazole-5-carboxamide]",Cardiotoxicity (overall maximum toxic dose),hiPSC-CMs; Table 1,>10 µM
O=C(Nc1ccc(OC(F)(F)Cl)cc1)c1cnc(N2CC[C@@H](O)C2)c(-c2ccn[nH]2)c1 [Asciminib],Cardiotoxicity (overall maximum toxic dose),hiPSC-CMs; Table 5,4.81 µM
Cc1ccc(C(=O)Nc2ccc(CN3CCN(C)CC3)c(C(F)(F)F)c2)cc1C#Cc1cnc2cccnn12 [Ponatinib],effect on cardiomyocyte contractility (peak contraction amplitude),"hiPSC-CMs; FIGS. 3D, 3E, hiPSC-CMs from two healthy donors",potently suppresses cardiomyocyte contractility
same,Cardiotoxicity (overall maximum toxic dose),hiPSC-CMs; Table 5,0.47 µM
same,inhibition of growth of healthy HEK cells at,HEK cells,1.1 µM
same,pIC50,"K-562 cells; K562, read-out: Cell Inhibition IC50 K562",9.30
same,serum cardiac troponin levels,[1],increased troponin levels
Cc1cn(-c2cc(NC(=O)c3ccc(C)c(Nc4nccc(-c5cccnc5)n4)c3)cc(C(F)(F)F)c2)cn1 [Nilotinib],Cardiotoxicity (overall maximum toxic dose),hiPSC-CMs; Table 5,1.12 µM
same,pIC50,[2],< 5.00
same,pIC50,K-562 cells; [3],7.59
Cc1nc(Nc2ncc(C(=O)Nc3c(C)cccc3Cl)s2)cc(N2CCN(CCO)CC2)n1 [Dasatinib],Cardiotoxicity (overall maximum toxic dose),hiPSC-CMs; Table 5,>10 µM
same,pIC50,K-562 cells; [3],9.40
"C#Cc1cc(C(=O)Nc2ccc(CN3CCN(C)CC3)c(C(F)(F)F)c2)ccc1OC [Compound 29, 3-ethynyl-4-methoxy-N-(4-((4-methylpiperazin-1-yl)methyl)-3-(trifluoromethyl)phenyl)benzamide]",concentration at which cardiotoxicity was observed / cardiac-safe up to,hiPSC-CMs,1340 nM
same,Cardiotoxicity (overall maximum toxic dose),hiPSC-CMs; Table 4,1.34 µM
"Cc1ccc(C(=O)Nc2ccc(CN3CCN(C)CC3)c(C(F)(F)F)c2)cc1 [Compound 21a, 4-methyl-N-(4-((4-methylpiperazin-1-yl)methyl)-3-(trifluoromethyl)phenyl)benzamide]",concentration at which cardiotoxicity was observed / cardiac-safe up to,hiPSC-CMs,1450 nM
same,Cardiotoxicity (overall maximum toxic dose),hiPSC-CMs; Table 4,1.45 µM
"C#Cc1cc(C(=O)Nc2ccc(CN3CCN(C)CC3)c(C(F)(F)F)c2)ccc1C [Compound 19, 3-ethynyl-4-methyl-N-(4-((4-methylpiperazin-1-yl)methyl)-3-(trifluoromethyl)phenyl) benzamide]",Cardiotoxicity (overall maximum toxic dose),hiPSC-CMs; Table 4,1.13 µM
